Measured values from patent publication US5124455A, “Oxime-carbamates and oxime-carbonates as bronchodilators and anti-inflammatory agents” (American Home Products Corporation, priority 1990, dated 1992).

These compounds were tested on PDE IV (assay: inhibition of PDE IV isolated from canine trachea (cAMP metabolism)). Conditions: PDE IV from canine tracheal muscle; 1 μM 3H-cAMP; 10 μM CI-930; 30° C., pH 7.8; reduction expressed as percentage of that by 10 μM rolipram.
Type: biochemical
Experimental: The following assay is employed to assess the ability of the compounds of the invention to inhibit PDE IV.
A solution containing PDE IV is prepared from canine tracheal muscle as follows:
The dog is euthanized with an overdose of beuthanasia while under anesthesia induced by a 33 mg/kg IV bolus of Nembutal. The trachealis muscle is removed, cleaned of connective tissue, and minced thoroughly. Three to four grams of tissue is then homogenized in Tris-HCl buffer (pH 7.8) using a Polytron. The homogenate is then centrifuged at 25,000×g (4° C.) for 30 minutes. The supernatant is decanted and filtered through four layers of gauze, and applied to a 40 cm×2 cm DEAE-Sepharose column that is equilibrated with Tris-HCl buffer (pH 7.8). The column is then washed with an additional 240 mL of buffer to remove unbound proteins. PDE is eluted using 450 mL of Tris-HCl buffer containing a linear gradient of 0.0-1.0M Na-acetate (80 mL/hr), and 7.5 mL fractions are collected. Each fraction is assayed for cAMP- and cGMP-metabolizing PDE activity. Fractions eluting at approximately 0.6M Na-acetate, and containing cAMP but not cGMP metabolic activity are pooled and used as a PDE stock solution for assaying PDE IV inhibitory activity.
CI-930 is included as an inhibitor of the cyclic GMP-sensitive, cyclic AMP-selectivePDE (PDE III) that is also present in the PDE IV stock solution when prepared as described above.
`COc1ccc(/C(C)=N/OC(N)=O)cc1OC1CCCC1` [Example 1, 1-[3-(Cyclopentyloxy)-4-methoxyphenyl]ethanone (E)-O-(aminocarbonyl)oxime] showed an IC50 of 48 nM.
Compound `CCCCOc1cc(/C(C)=N/OC(N)=O)ccc1OC` [Example 2, 1-[3-(Butoxy)-4-methoxyphenyl]ethanone (E)-O-(aminocarbonyl)oxime] has an IC50 of 90 nM.
`COc1ccc(/C(C)=N/OC(N)=O)cc1OCCCOc1ccccc1` [Example 3, 1-[4-Methoxy-3-(3-phenoxypropoxy)phenyl]ethanone (E)-O-(aminocarbonyl)oxime] was tested, and the IC50 was 410 nM.
In the case of `COc1ccc(/C(Cc2ccccc2)=N/OC(N)=O)cc1OC1CCCC1` [Example 4, 1-(3-Cyclopentyloxy-4-methoxyphenyl)-2-phenylethanone (E)-O-(aminocarbonyl)oxime], the IC50 is reported as 47 nM.
`COc1ccc(/C(CCc2ccccc2)=N/OC(N)=O)cc1OC1CCCC1` [Example 5, 1-(3-Cyclopentyloxy-4-methoxyphenyl)-3-phenylpropanone (E)-O-(aminocarbonyl)oxime] was tested, and the IC50 was 25 nM.
In the case of `COc1ccc(/C(CC(C)C)=N/OC(N)=O)cc1OC1CCCC1` [Example 6, 1-[3-(Cyclopentyloxy)-4-methoxyphenyl]-3-methylbutanone (E)-O-(aminocarbonyl)oxime], the IC50 is reported as 130 nM.
`CNC(=O)O/N=C(\C)c1ccc(OC)c(OC2CCCC2)c1` [Example 7, 1-[3-(Cyclopentyloxy)-4-methoxyphenyl]ethanone (E)-O-[(methylamino)carbonyl]oxime] was tested, and the IC50 was 120 nM.
With `CCCCOc1cc(/C(C)=N/OC(=O)NC)ccc1OC` [Example 8, 1-(3-butoxy-4-methoxyphenyl)ethanone (E)-O-[(methylamino)carbonyl]oxime] the IC50 was 200 nM.
`CCCCOc1cc(/C(C)=N/OC(=O)Nc2ccccc2)ccc1OC` [Example 9, 1-(3-butoxy-4-methoxyphenyl)ethanone (E)-O-[(phenylamino)carbonyl]oxime] gave an IC50 of 1500 nM.
Compound `COC(=O)O/N=C(\C)c1ccc(OC)c(OC2CCCC2)c1` [Example 10, 1-[3-(cyclopentyloxy)-4-methoxyphenyl]ethanone (E)-O-(methoxycarbonyl)oxime] has an IC50 of 180 nM.
Compound `CCCCOc1cc(/C(C)=N/OC(=O)OC)ccc1OC` [Example 11, 1-(3-butoxy-4-methoxyphenyl)ethanone (E)-O-(methoxycarbonyl)oxime] has an IC50 of 240 nM.
`CCCCOc1cc(/C(C)=N/OC(=O)Oc2ccccc2)ccc1OC` [Example 12, 1-(3-butoxy-4-methoxyphenyl)ethanone (E)-O-(phenoxycarbonyl)oxime] showed an IC50 of 380 nM.
In the case of `COc1ccc(/C(C)=N/OC(N)=O)cc1OC1CC2CCC1C2` (stereo not shown) [Example 13, 1-[3-(bicyclo[2.2.1]hept-2-yloxy)-4-methoxyphenyl]ethanone (E)-O-(aminocarbonyl)oxime], the IC50 is reported as 67 nM.
